Experiment [1] deals with M. kansaii (MKN; ATCC12478 & 35775). As to the kind of experiment: MIC by microdilution method in 7H9 broth. Type of experiment: cell-based, M. kansasii. (In general: Dilution methods test growth across graded concentrations, often in twofold steps.)
The subject of experiment [2] is M. smegmatis (MSMG; MC2155). Nature of the experiment: MIC by microdilution method in 7H9 broth. In kind it is cell-based. Conditions: 72 hr.
The test system of experiment [3] is M. abscessus (MAB; ATCC 700869). Nature of the experiment: MIC by microdilution method in 7H9 broth. Type of experiment: cell-based. Conditions: MAB 700869.
The subject of experiment [4] is M. avium complex (MAC). As to the kind of experiment: MIC by microdilution method in 7H9 broth. Type of experiment: cell-based. As to conditions: for MIC90: value in square brackets.
Experiment [5] deals with MAC. As to the kind of experiment: Synergy by checkerboard titration (microdilution). In kind it is cell-based, M. avium complex. As to conditions: for MIC: Mycobacterium avium, drug alone.
In experiment [6] the test system is MTB in J774A.1 cells. Nature of the experiment: Intracellular activity of SQ641 with efflux pump blockers. In kind it is cell-based, Mycobacterium tuberculosis. Conditions: J774A.1 cells; VE and CsA at 10 μM.
The mark [7] stands for this setting: Mycobacterium kansasii, ATCC 12478 / ATCC 35775, MKN ATCC35775, read-out: MIC.
Setting [8] is: Mycobacterium kansasii, MKN ATCC12478, read-out: MIC.
Where [9] appears, read: Mycolicibacterium smegmatis, MC2155|MC^2155, MSMG MC^2155, read-out: MIC.
Where [10] appears, read: Mycobacteroides abscessus, ATCC700869, read-out: MIC.
[11] abbreviates: Mycobacterium avium, MAC strain 100, read-out: MIC.
[12] abbreviates: Mycobacterium avium, MAC strain 101, read-out: MIC.
Where [13] appears, read: Mycobacterium avium, MAC strain 104, read-out: MIC.
The mark [14] stands for this setting: Mycobacterium avium, MAC strain 109, read-out: MIC.
Setting [15] is: Mycobacterium avium, MAC strain A5, read-out: MIC.
The mark [16] stands for this setting: Mycobacterium avium, MAC strain JSH1, read-out: MIC.
Setting [17] is: Mycobacterium avium, MAC strain NIH C1-1, read-out: MIC.
[18] abbreviates: Mycobacterium avium, MAC strain NIH C1-2, read-out: MIC.
Setting [19] is: Mycobacterium avium, MAC strain NIH C1-3, read-out: MIC.
Setting [20] is: Mycobacterium avium, MAC strain NIH C1-4, read-out: MIC.
[21] abbreviates: Mycobacterium avium, MAC isolates, read-out: MIC90.

≈ marks a conversion by molar mass, not a printed value. Like-named read-outs stand apart in the source and are kept apart here.

A word on the MIC: it is the lowest concentration that inhibits growth of the organism. Broadly, the MIC90 is the lowest concentration that inhibits either 90% of growth or 90% of the strains tested, depending on the study. Turning to `NCC[C@H](O)C(=O)N[C@@H]1C[C@H](N)[C@@H](O[C@H]2O[C@H](CN)[C@@H](O)[C@H](O)[C@H]2O)[C@H](O)[C@H]1O[C@H]1O[C@H](CO)[C@@H](O)[C@H](N)[C@H]1O` [AMK, amikacin, reference compound], the MIC came out at 2 µg/mL (≈ 3.42 µM) in experiment [1] (setting [7]); 2 µg/mL (≈ 3.42 µM) in experiment [1] (setting [8]); 0.5 µg/mL (≈ 0.854 µM) in experiment [2] (setting [9]); 4 µg/mL (≈ 6.83 µM) in experiment [3] (setting [10]); 8 µg/mL (≈ 13.7 µM) in experiment [4] (setting [11]); 2 µg/mL (≈ 3.42 µM) in experiment [4] (setting [12]). The MIC in experiment [4] (setting [13]) turned out to be 16 µg/mL (≈ 27.3 µM); in experiment [4] (setting [14]) it was 1 µg/mL (≈ 1.71 µM); in experiment [4] (setting [15]) it was 4 µg/mL (≈ 6.83 µM); in experiment [4] (setting [16]) it was 8 µg/mL (≈ 13.7 µM); in experiment [4] (setting [17]), 8 µg/mL (≈ 13.7 µM); in experiment [4] (setting [18]) it was 32 µg/mL (≈ 54.6 µM). For the same molecule, the minimum inhibitory concentration (MIC) was 8 µg/mL (≈ 13.7 µM) in experiment [4] (setting [19]); 4 µg/mL (≈ 6.83 µM) in experiment [4] (setting [20]); 2 µg/mL in experiment [5] (MAC A5); 16 µg/mL in experiment [5] (MAC JSH1); 8 µg/mL in experiment [5] (MAC NIH C1-1). The MIC90 in experiment [4] (setting [21]) was 16 µg/mL (≈ 27.3 µM). In addition, the “MIC Combination” value was 0.5 µg/mL in experiment [5] (MAC A5, combination SQ641 + AMK); 8.0 µg/mL in experiment [5] (MAC JSH1, combination SQ641 + AMK); 4.0 µg/mL in experiment [5] (MAC NIH C1-1, combination SQ641 + AMK).
In the case of `O=C(O)c1cn(C2CC2)c2cc(N3CCNCC3)c(F)cc2c1=O` [CIP, reference compound], the MIC in experiment [1] (MKN ATCC12478) was 2 µg/mL (≈ 6.04 µM); in experiment [1] (MKN ATCC35775) it was 0.25 µg/mL (≈ 0.754 µM); in experiment [2] (MSMG MC^2155), 0.5 µg/mL (≈ 1.51 µM); in experiment [3], >32 µg/mL. Moreover, in experiment [4] (MAC isolates, 2 wk), the “MIC range” value lay within 0.125 to 32 µg/mL. The MIC90 in experiment [4] (MAC isolates) was 2 µg/mL (≈ 6.04 µM).
As to `CC[C@H]1OC(=O)[C@H](C)[C@@H](O[C@H]2C[C@@](C)(OC)[C@@H](O)[C@H](C)O2)[C@H](C)[C@@H](O[C@@H]2O[C@H](C)C[C@H](N(C)C)[C@H]2O)[C@](C)(OC)C[C@@H](C)C(=O)[C@H](C)[C@@H](O)[C@]1(C)O` [CLA, clarithromycin, reference compound], the MIC in experiment [1] (setting [7]) is 0.25 µg/mL (≈ 0.334 µM); in experiment [1] (setting [8]), 0.25 µg/mL (≈ 0.334 µM); in experiment [2] (setting [9]), 2 µg/mL (≈ 2.67 µM); in experiment [3] (setting [10]) it was > 32 µg/mL; in experiment [4] (Mycobacterium avium, 336 h, MAC isolates, 2 wk, read-out: MIC (range)), 0.062 to 32 µg/mL (≈ 0.0829 to 42.8 µM); in experiment [4] (setting [11]), 0.25 µg/mL (≈ 0.334 µM). Moreover, the minimum inhibitory concentration (MIC) in experiment [4] (setting [12]) was found to be 0.125 µg/mL (≈ 0.167 µM); in experiment [4] (setting [13]), 0.5 µg/mL (≈ 0.668 µM); in experiment [4] (setting [14]), 0.062 µg/mL (≈ 0.0829 µM); in experiment [4] (setting [15]), 0.125 µg/mL (≈ 0.167 µM); in experiment [4] (setting [16]), 2 µg/mL (≈ 2.67 µM); in experiment [4] (setting [17]) it was 1 µg/mL (≈ 1.34 µM). Moreover, the MIC in experiment [4] (setting [18]) worked out at 0.25 µg/mL (≈ 0.334 µM); in experiment [4] (setting [19]), 32 µg/mL (≈ 42.8 µM); in experiment [4] (setting [20]), 1 µg/mL (≈ 1.34 µM); in experiment [5] (MAC A5), 0.125 µg/mL; in experiment [5] (MAC JSH1), 1 µg/mL; in experiment [5] (MAC NIH C1-1), 2 µg/mL. Besides, in experiment [4] (setting [21]), the MIC90 was determined as 2 µg/mL (≈ 2.67 µM). Moreover, the “MIC Combination” value in experiment [5] (MAC A5, combination SQ641 + CLA) stood at 0.031 µg/mL; in experiment [5] (MAC JSH1, combination SQ641 + CLA) it was 1 µg/mL; in experiment [5] (MAC NIH C1-1, combination SQ641 + CLA) it was 2.0 µg/mL.
As for `Cc1ccc(C)c(OCCCC(C)(C)C(=O)O)c1` [GF, gemfibrozil, reference compound], the “Effect of efflux pump blocker on intracellular activity of SQ641 against MTB” value in experiment [6] is reported as “only moderate effects”.
As to `COc1c(N2C[C@@H]3CCCN[C@@H]3C2)c(F)cc2c(=O)c(C(=O)O)cn(C3CC3)c12` [MOX, moxifloxacin, reference compound], the MIC is 0.031 µg/mL (≈ 0.0772 µM) in experiment [1] (setting [7]); 0.125 µg/mL (≈ 0.311 µM) in experiment [1] (setting [8]); 0.125 µg/mL (≈ 0.311 µM) in experiment [2] (Mycolicibacterium smegmatis, MC2155|MC^2155, read-out: MIC); > 32 µg/mL in experiment [3] (setting [10]).
